Experiment: Acyl group migration (rearrangement) of pro-drug in DMSO-d6/buffer solution monitored by 19F-NMR
Type: physicochemical
Procedure: A compound of formula (I) OR (X) (5 mg) is dissolved in DMSO-d6 (500 μL) and either pH 4 buffer solution (500 μL, potassium hydrogen phthalate buffer) or pH 7 buffer solution (500 μL, sodium and potassium phosphate buffer) is added. The sample is then heated to 40° C. The O-acyl or N-acyl to N-terminal N-acyl migration is monitored by observing the change in chemical shift for the aromatic fluorines using ^19F-NMR. (Fluorine shifts associated with the desired migration were confirmed by spiking with authentic analogue). The sample is analyzed by ^19F-NMR at approxiamately 0, 1.5, 3, 24, 48, and 144 hours. The amount of O-acyl pro-drug, N-acyl pro-drug, and desired migration product at each time point are assigned by integrating the corresponding NMR signal.
N˜1˜-[(2R,3S)-3-amino-4-(3,5-difluorophenyl)-2-hydroxybutyl]-5-(1,3-oxazol-2-yl)-N˜3˜,N˜3˜-dipropyl-N˜1˜-[3-(trifluoromethyl)benzyl]isophthalamide hydrochloride (PREPARATION 7, 5 mg) is dissolved in DMSO-d6 (500 μL) and pH 4 buffer solution (500 μL, potassium hydrogen phthalate buffer) is added. The sample is then heated to 40° C. The N-acyl to N-terminal N-acyl migration is monitored by observing the change in chemical shift for the aromatic fluorines using ^19F-NMR. (Fluorine shifts for the desired migration product in the presence of buffer was confirmed by spiking with authentic migration product, N^1-((1S,2R)-1-(3,5-difluorobenzyl)-2-hydroxy-3-{[3-(trifluoromethyl)benzyl]amino}propyl)-5-(1,3-oxazol-2-yl)-N^3,N^3-dipropylisophthalamide.) NMR data is collected at 0, 1, 3, 25, 48, 96, and 144 hours. The amount of N-acyl pro-drug and desired migration product present at each time point is assigned by integrating the corresponding NMR signal.
The following examples illustrate the solution acyl group migration of compounds of the formulae (I) and (X) as observed by ^19F NMR spectroscopy. Data were collected as described in Example 1, above.

Row | Structure (SMILES) | HEA product (% present) (pH 4, 40° C., time 0 hr) [%] | N-acyl prodrug (% present) (pH 4, 40° C., time 0 hr) [%] | O-acyl pro-drug (% present) (pH 4, 40° C., time 0 hr) [%] | HEA product (% present) (pH 4, 40° C., time 1 hr) [%] | N-acyl prodrug (% present) (pH 4, 40° C., time 1 hr) [%] | O-acyl pro-drug (% present) (pH 4, 40° C., time 1 hr) [%] | HEA product (% present) (pH 4, 40° C., time 3 hr) [%] | N-acyl prodrug (% present) (pH 4, 40° C., time 3 hr) [%] | O-acyl pro-drug (% present) (pH 4, 40° C., time 3 hr) [%] | HEA product (% present) (pH 4, 40° C., time 24 hr) [%] | N-acyl prodrug (% present) (pH 4, 40° C., time 24 hr) [%] | O-acyl pro-drug (% present) (pH 4, 40° C., time 24 hr) [%] | HEA product (% present) (pH 4, 40° C., time 48 hr) [%] | N-acyl prodrug (% present) (pH 4, 40° C., time 48 hr) [%] | O-acyl pro-drug (% present) (pH 4, 40° C., time 48 hr) [%] | HEA product (% present) (pH 7, 40° C., time 0 hr) [%] | N-acyl prodrug (% present) (pH 7, 40° C., time 0 hr) [%] | O-acyl pro-drug (% present) (pH 7, 40° C., time 0 hr) [%] | HEA product (% present) (pH 7, 40° C., time 1 hr) [%] | N-acyl prodrug (% present) (pH 7, 40° C., time 1 hr) [%] | also measured
1 | CCCN(CCC)C(=O)c1cc(C(=O)N(Cc2cccc(CC)c2)C[C@@H](O)[C@@H](N)Cc2cc(F)cc(F)c2)cc(-c2ncco2)c1.Cl [Preparation 19, N^1-[(2R,3S)-3-amino-4-(3,5-difluorophenyl)-2-hydroxybutyl]-N\(u)1\(d)-(3-ethylbenzyl)-5-(1,3-oxazol-2-yl)-N^3,N^3-dispropylisophthalamide hydrochloride] | 0 | 100 | 0 | 0 | 100 | 0 | 0 | 100 | 0 | 3 | 97 | 0 | 5 | 95 | 0 | 0 | 100 | 0 | 3 | 97 | HEA product (% present) (pH 4, 40° C., time 96 hr): 8%; N-acyl prodrug (% present) (pH 4, 40° C., time 96 hr): 92%; O-acyl pro-drug (% present) (pH 4, 40° C., time 96 hr): 0%; O-acyl pro-drug (% present) (pH 7, 40° C., time 1 hr): 0%; HEA product (% present) (pH 7, 40° C., time 3 hr): 9%; N-acyl prodrug (% present) (pH 7, 40° C., time 3 hr): 91%; O-acyl pro-drug (% present) (pH 7, 40° C., time 3 hr): 0%; HEA product (% present) (pH 7, 40° C., time 24 hr): 40%; N-acyl prodrug (% present) (pH 7, 40° C., time 24 hr): 60%; O-acyl pro-drug (% present) (pH 7, 40° C., time 24 hr): 0%; HEA product (% present) (pH 7, 40° C., time 48 hr): 63%; N-acyl prodrug (% present) (pH 7, 40° C., time 48 hr): 37%; O-acyl pro-drug (% present) (pH 7, 40° C., time 48 hr): 0%; HEA product (% present) (pH 7, 40° C., time 96 hr): 81%; N-acyl prodrug (% present) (pH 7, 40° C., time 96 hr): 19%; O-acyl pro-drug (% present) (pH 7, 40° C., time 96 hr): 0%
2 | CCCN(CCC)C(=O)c1cc(C(=O)N(Cc2cccc(C(F)(F)F)c2)C[C@@H](O)[C@@H](N)Cc2cc(F)cc(F)c2)cc(-c2ncco2)c1.Cl [Preparation 20, N^1-[(2R,3S)-3-amino-4-(3,5-difluorophenyl)-2-hydroxybutyl]-5-(1,3-oxazol-2-yl)-N^3,N^3-dipropyl-N^1-[3-(trifluoromethyl)benzyl]-isophthalamide hydrochloride] | 0 | 100 | 0 | 3 | 97 | 0 | 4 | 96 | 0 | 7 | 93 | 0 | 8 | 92 | 0 | 0 | 100 | 0 | 7 | 93 | HEA product (% present) (pH 4, 40° C., time 96 hr): 12%; N-acyl prodrug (% present) (pH 4, 40° C., time 96 hr): 88%; O-acyl pro-drug (% present) (pH 4, 40° C., time 96 hr): 0%; O-acyl pro-drug (% present) (pH 7, 40° C., time 1 hr): 0%; HEA product (% present) (pH 7, 40° C., time 3 hr): 12%; N-acyl prodrug (% present) (pH 7, 40° C., time 3 hr): 88%; O-acyl pro-drug (% present) (pH 7, 40° C., time 3 hr): 0%; HEA product (% present) (pH 7, 40° C., time 24 hr): 51%; N-acyl prodrug (% present) (pH 7, 40° C., time 24 hr): 49%; O-acyl pro-drug (% present) (pH 7, 40° C., time 24 hr): 0%; HEA product (% present) (pH 7, 40° C., time 48 hr): 73%; N-acyl prodrug (% present) (pH 7, 40° C., time 48 hr): 27%; O-acyl pro-drug (% present) (pH 7, 40° C., time 48 hr): 0%; HEA product (% present) (pH 7, 40° C., time 96 hr): 88%; N-acyl prodrug (% present) (pH 7, 40° C., time 96 hr): 12%; O-acyl pro-drug (% present) (pH 7, 40° C., time 96 hr): 0%
3 | C#Cc1cccc(C2(NC[C@@H](OC(=O)c3cc(C(=O)N(CCC)CCC)cc(-c4ncco4)c3)[C@@H](N)Cc3cc(F)cc(F)c3)CC2)c1 [Preparation 22, (1R,2S)-2-amino-3-(3,5-difluorophenyl)-1-({[1-(3-ethynylphenyl)cyclopropyl]amino}methyl)propyl 3-[(dipropylamino)carbonyl]-5-(1,3-oxazol-2-yl)benzoate] | 0 | 0 | 100 | 13 | 0 | 87 | 27 | 0 | 66 | 78 | 0 | 9 | 86 | 0 | 0 | 0 | 0 | 100 | 100 | 0 | HEA product (% present) (pH 4, 40° C., time 0.5 hr): 7%; N-acyl prodrug (% present) (pH 4, 40° C., time 0.5 hr): 0%; O-acyl pro-drug (% present) (pH 4, 40° C., time 0.5 hr): 93%; HEA product (% present) (pH 4, 40° C., time 6 hr): 42%; N-acyl prodrug (% present) (pH 4, 40° C., time 6 hr): 0%; O-acyl pro-drug (% present) (pH 4, 40° C., time 6 hr): 49%; HEA product (% present) (pH 7, 40° C., time 0.5 hr): 10%; N-acyl prodrug (% present) (pH 7, 40° C., time 0.5 hr): 0%; O-acyl pro-drug (% present) (pH 7, 40° C., time 0.5 hr): 10%; O-acyl pro-drug (% present) (pH 7, 40° C., time 1 hr): 0%

Reference: patent publication US7294642B2, “1,3-Diamino-2-hydroxypropane pro-drug derivatives” (Elan Pharmaceuticals, Inc., priority 2002, dated 2007)
